The molecules below were run against WDR5 (Homo sapiens, UniProt P61964) (assay: Screening of putative WDR5 degraders by Western blot in MV4;11 and/or MIAPACA2 cells). Details: summary of screening, FIGS. 6-10.
Format: cell-based
Parameters: After WDR5 degrader treatment, cells were collected and lysed; endogenous in cells; host or cells: MV4;11 and/or MIAPACA2
Protocol: MV4;11 cells were treated with DMSO or indicated compounds at 0.1 μM and 0.5 μM for 18 hours. […]. MIAPACA2 cells were treated with DMSO or indicated compounds at 0.5 μM and 1.0 μM for 18 hours.
MIAPACA2 cells were treated with DMSO or indicated compounds at 0.1 μM and 0.5 μM for 18 hours.
MIAPACA2 cells were treated with DMSO or indicated compounds at 0.5 μM and 1.0 μM or at 1.0 μM and 10 μM for 18 hours.
MV4;11 cells were treated with DMSO or indicated compounds at 0.1 μM and 1.0 μM for 18 hours.
WDR5 degraders were dissolved in DMSO and DMSO with no degraders was used as the control. 1×10^6 MV4;11 cells or 1×10^5 MIAPACA2 or 2×10^5 Hela cells were seeded in 2 mL medium for each well in […].
For prescreening of all the compounds, each test compound was added to the medium at indicated concentrations. After 18 h treatment, cells were collected.
After WDR5 degrader treatment, cells were collected and lysed. Total cell lysates were used for western blot. The following primary antibodies were used: WDR5 (Santa Cruz), vinculin (Cell Signaling Technology), tubulin (Cell Signaling Technology), GAPDH (Santa Cruz). Blots were imaged using fluorescence-labeled secondary antibodies on ChemiDoc™ Imaging Systems.

SMILES | effective degradation of WDR5 in MV4;11 and/or MIAPACA2 cells
Cc1ncsc1-c1ccc(CNC(=O)[C@@H]2C[C@@H](O)CN2C(=O)[C@@H](NC(=O)CCOCCOCCOCCOCCNC(=O)CCC(=O)N2CCN(c3ccc(-c4cc(NC(=O)c5c[nH]c(=O)cc5C(F)(F)F)c(N5C[C@@H](C)N(C)[C@@H](C)C5)cc4F)cn3)CC2)C(C)(C)C)cc1 [XF067-146, N-(4-fluoro-5-(6-(4-((S)-3-((2S,4R)-4-hydroxy-2-((4-(4-methylthiazol-5-yl)benzyl)carbamoyl)pyrrolidine-1-carbonyl)-2,2-dimethyl-5,21-dioxo-8,11,14,17-tetraoxa-4,20-diazatetracosan-24-oyl)piperazin-1-yl)pyridin-3-yl)-2-((3S,5R)-3,4,5-trimethylpiperazin-1-yl)phenyl)-6-oxo-4-(trifluoromethyl)-1,6-dihydropyridine-3-carboxamide] | able to effectively degrade WDR5
Cc1ncsc1-c1ccc(CNC(=O)[C@@H]2C[C@@H](O)CN2C(=O)[C@@H](NC(=O)COCC(=O)NCCN2CCN(Cc3ccc(F)c(-c4ccc(N5C[C@@H](C)N(C)[C@@H](C)C5)c(NC(=O)c5c[nH]c(=O)cc5C(F)(F)F)c4)c3)CC2)C(C)(C)C)cc1 [XF078-1, N-(2′-fluoro-5′-((4-(2-(2-(2-(((S)-1-((2S,4R)-4-hydroxy-2-((4-(4-methylthiazol-5-yl)benzyl)carbamoyl)pyrrolidin-1-yl)-3,3-dimethyl-1-oxobutan-2-yl)amino)-2-oxoethoxy)acetamido)ethyl)piperazin-1-yl)methyl)-4-((3S,5R)-3,4,5-trimethylpiperazin-1-yl)-[1,1′-biphenyl]-3-yl)-6-oxo-4-(trifluoromethyl)-1,6-dihydropyridine-3-carboxamide] | able to effectively degrade WDR5
Cc1ncsc1-c1ccc(CNC(=O)[C@@H]2C[C@@H](O)CN2C(=O)[C@@H](NC(=O)COCCOCCOCCOCCOCC(=O)NCCN2CCN(Cc3ccc(F)c(-c4ccc(N5C[C@@H](C)N(C)[C@@H](C)C5)c(NC(=O)c5c[nH]c(=O)cc5C(F)(F)F)c4)c3)CC2)C(C)(C)C)cc1 [XF078-8, N^1-(2-(4-((6-fluoro-3′-(6-oxo-4-(trifluoromethyl)-1,6-dihydropyridine-3-carboxamido)-4′-((3S,5R)-3,4,5-trimethylpiperazin-1-yl)-[1,1′-biphenyl]-3-yl)methyl)piperazin-1-yl)ethyl)-N^17-((S)-1-((2S,4R)-4-hydroxy-2-((4-(4-methylthiazol-5-yl)benzyl)carbamoyl)pyrrolidin-1-yl)-3,3-dimethyl-1-oxobutan-2-yl)-3,6,9,12,15-pentaoxaheptadecanediamide] | able to effectively degrade WDR5
Cc1ncsc1-c1ccc(CNC(=O)[C@@H]2C[C@@H](O)CN2C(=O)[C@@H](NC(=O)CCCCCCC(=O)NCCN2CCN(Cc3ccc(F)c(-c4ccc(N5C[C@@H](C)N(C)[C@@H](C)C5)c(NC(=O)c5c[nH]c(=O)cc5C(F)(F)F)c4)c3)CC2)C(C)(C)C)cc1 [XF078-14, N^1-(2-(4-((6-fluoro-3′-(6-oxo-4-(trifluoromethyl)-1,6-dihydropyridine-3-carboxamido)-4′-((3S,5R)-3,4,5-trimethylpiperazin-1-yl)-[1,1′-biphenyl]-3-yl)methyl)piperazin-1-yl)ethyl)-N^8-((S)-1-((2S,4R)-4-hydroxy-2-((4-(4-methylthiazol-5-yl)benzyl)carbamoyl)pyrrolidin-1-yl)-3,3-dimethyl-1-oxobutan-2-yl)octanediamide] | able to effectively degrade WDR5

Other lines, results leading:

effective degradation of WDR5 in MV4;11 and/or MIAPACA2 cells | SMILES
able to effectively degrade WDR5 | Cc1ncsc1-c1ccc(CNC(=O)[C@@H]2C[C@@H](O)CN2C(=O)[C@@H](NC(=O)CCOCCC(=O)NCCN2CCN(Cc3ccc(F)c(-c4ccc(N5C[C@@H](C)N(C)[C@@H](C)C5)c(NC(=O)c5c[nH]c(=O)cc5C(F)(F)F)c4)c3)CC2)C(C)(C)C)cc1 [XF078-2, N-(2′-fluoro-5′-((4-(2-(3-(3-(((S)-1-((2S,4R)-4-hydroxy-2-((4-(4-methylthiazol-5-yl)benzyl)carbamoyl)pyrrolidin-1-yl)-3,3-dimethyl-1-oxobutan-2-yl)amino)-3-oxopropoxy)propanamido)ethyl)piperazin-1-yl)methyl)-4-((3S,5R)-3,4,5-trimethylpiperazin-1-yl)-[1,1′-biphenyl]-3-yl)-6-oxo-4-(trifluoromethyl)-1,6-dihydropyridine-3-carboxamide]
able to effectively degrade WDR5 | Cc1ncsc1-c1ccc(CNC(=O)[C@@H]2C[C@@H](O)CN2C(=O)[C@@H](NC(=O)CCOCCOCCOCCC(=O)NCCN2CCN(Cc3ccc(F)c(-c4ccc(N5C[C@@H](C)N(C)[C@@H](C)C5)c(NC(=O)c5c[nH]c(=O)cc5C(F)(F)F)c4)c3)CC2)C(C)(C)C)cc1 [XF078-6, N-(2′-fluoro-5′-((4-((S)-18-((2S,4R)-4-hydroxy-2-((4-(4-methylthiazol-5-yl)benzyl)carbamoyl)pyrrolidine-1-carbonyl)-19,19-dimethyl-4,16-dioxo-7,10,13-trioxa-3,17-diazaicosyl)piperazin-1-yl)methyl)-4-((3S,5R)-3,4,5-trimethylpiperazin-1-yl)-[1,1′-biphenyl]-3-yl)-6-oxo-4-(trifluoromethyl)-1,6-dihydropyridine-3-carboxamide]
able to effectively degrade WDR5 | Cc1ncsc1-c1ccc(CNC(=O)[C@@H]2C[C@@H](O)CN2C(=O)[C@@H](NC(=O)CCCCC(=O)NCCN2CCN(Cc3ccc(F)c(-c4ccc(N5C[C@@H](C)N(C)[C@@H](C)C5)c(NC(=O)c5c[nH]c(=O)cc5C(F)(F)F)c4)c3)CC2)C(C)(C)C)cc1 [XF078-12, N^1-(2-(4-((6-fluoro-3′-(6-oxo-4-(trifluoromethyl)-1,6-dihydropyridine-3-carboxamido)-4′-((3S,5R)-3,4,5-trimethylpiperazin-1-yl)-[1,1′-biphenyl]-3-yl)methyl)piperazin-1-yl)ethyl)-N^6-((S)-1-((2S,4R)-4-hydroxy-2-((4-(4-methylthiazol-5-yl)benzyl)carbamoyl)pyrrolidin-1-yl)-3,3-dimethyl-1-oxobutan-2-yl)adipamide]
able to effectively degrade WDR5 | Cc1ncsc1-c1ccc(CNC(=O)[C@@H]2C[C@@H](O)CN2C(=O)[C@@H](NC(=O)CCCCCC(=O)NCCN2CCN(Cc3ccc(F)c(-c4ccc(N5C[C@@H](C)N(C)[C@@H](C)C5)c(NC(=O)c5c[nH]c(=O)cc5C(F)(F)F)c4)c3)CC2)C(C)(C)C)cc1 [XF078-13, N^1-(2-(4-((6-fluoro-3′-(6-oxo-4-(trifluoromethyl)-1,6-dihydropyridine-3-carboxamido)-4′-((3S,5R)-3,4,5-trimethylpiperazin-1-yl)-[1,1′-biphenyl]-3-yl)methyl)piperazin-1-yl)ethyl)-N^7-((S)-1-((2S,4R)-4-hydroxy-2-((4-(4-methylthiazol-5-yl)benzyl)carbamoyl)pyrrolidin-1-yl)-3,3-dimethyl-1-oxobutan-2-yl)heptanediamide]

From patent US12110295B2, “WD40 repeat domain protein 5 (WDR5) degradation/disruption compounds and methods of use” (Icahn School of Medicine at Mount Sinai, priority 2018, dated 2024)
